The subject of assay [1] is HCV 1a genotype replicon. The assay can be described thus: HCV replicon assay (qRT-PCR or luciferase), genotype 1a. It counts as cell-based. The settings on record: Hepatitis C virus. In short, it runs like this:
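Bartenschlager HCV replicon Huh cells; EC50 from HCV RNA by TaqMan qRT-PCR normalised to GAPDH, cytotoxicity by MTS. Combination studies in Huh-luc/neo-ET cells seeded at 7,000/well, compounds in 6-point two-fold dilutions, 0.2% DMSO final, 72 h at 37 °C, luciferase read-out.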

In assay [2] the test system is HCV 1b genotype replicon. Put plainly: HCV replicon assay (qRT-PCR or luciferase), genotype 1b. Type of assay: cell-based. As to conditions: Hepatitis C virus. In short, it runs like this:
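Genotype 1b subgenomic replicon Huh-luc/neo-ET cells (7,000/well) treated with compound for 72 h at 37 °C, 0.2% DMSO final; replication read by firefly luciferase. EC50 alternatively from qRT-PCR of HCV RNA normalized to GAPDH; cytotoxicity by MTS.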
In general terms: In antiviral work, replicon cells carry a viral genome segment that copies itself.

The mark [3] stands for this setting: Table 12, range class, read-out: 1a EC50 Range.
The mark [4] stands for this setting: Table 12, numeric values, read-out: 1b EC50.
The mark [5] stands for this setting: Table 12, range class, read-out: 1b EC50 Range.
Setting [6] is: Table 12, numeric values, read-out: 1a EC50.

Like-named read-outs stand apart in the source and are kept apart here.

Here are results for 33 compounds from US9765087B2, “Benzimidazole derivatives” (ENANTA PHARMACEUTICALS, INC., priority 2009, dated 2017).

Broadly, the EC50 is the concentration at which the effect is half-maximal.

In the case of `COC(=O)N[C@H](C(=O)N1CC2(CC2)C[C@H]1c1nc2ccc(C#Cc3ccc(-c4cnc([C@@H]5CC6(CC6)CN5C(=O)[C@H](NC(=O)OC)c5ccccc5)[nH]4)cc3)cc2[nH]1)C(C)C` (stereo in doubt) [Example 647], the EC50 is less than 1 nM in assay [1] (setting [3]) and 0.008 nM in assay [2] (setting [4]).
In the case of `COC(=O)N[C@H](C(=O)N1C[C@]2(CCCO2)C[C@H]1c1nc(-c2ccc(C#Cc3ccc4[nH]c([C@@H]5CC6(CC6)CN5C(=O)[C@@H](NC(=O)OC)C(C)C)nc4c3)cc2)c[nH]1)C(C)C` [Example 546], the EC50 in assay [1] (setting [3]) is less than 1 nM; in assay [2] (setting [4]), 0.012 nM.
For `COC(=O)N[C@H](C(=O)N1CC2(CC2)C[C@H]1c1nc2ccc(C#Cc3ccc(-c4cnc([C@@H]5CC6(CC6)CN5C(=O)[C@@H](NC(=O)OC)[C@@H](C)OCCF)[nH]4)cc3)cc2[nH]1)C(C)C` [Example 547], in that order: less than 1 nM and 0.018 nM.
With `COC(=O)N[C@H](C(=O)N1CCC[C@H]1c1nc(-c2ccc(C#Cc3ccc4[nH]c([C@@H]5C[C@@]6(CCCO6)CN5C(=O)[C@@H](NC(=O)OC)C(C)C)nc4c3)cc2)c[nH]1)C(C)C` [Example 551], the results for the EC50 in assay [1] (setting [3]) and in assay [2] (setting [4]) were less than 1 nM and 0.013 nM, respectively.
Consider `COC(=O)N[C@@H](COC(N)=O)C(=O)N1CCC[C@H]1c1ncc(-c2ccc(C#Cc3ccc4nc([C@@H]5CC6(CC6)CN5C(=O)[C@@H](NC(=O)OC)C(C)C)[nH]c4c3)cc2)[nH]1` [Example 552], for which the EC50 in assay [1] (setting [3]) and in assay [2] (setting [5]) was less than 1 nM each time.
Turning to `COC(=O)N[C@H](C(=O)N1CC2(CC2)C[C@H]1c1nc(-c2ccc(C#Cc3ccc4[nH]c([C@@H]5C[C@@]6(CCCO6)CN5C(=O)[C@@H](NC(=O)OC)C(C)C)nc4c3)cc2)c[nH]1)C(C)C` [Example 555], the EC50 in assay [1] (setting [3]) was less than 1 nM; in assay [2] (setting [4]), 0.007 nM.
Regarding `COC(=O)N[C@H](C(=O)N1C[C@@H](OC)C[C@H]1c1nc(-c2ccc(C#Cc3ccc4[nH]c([C@@H]5C[C@@]6(CCCO6)CN5C(=O)[C@@H](NC(=O)OC)C(C)C)nc4c3)cc2)c[nH]1)C(C)C` [Example 558], the half-maximal effective concentration (EC50) in assay [1] (setting [3]) and in assay [2] (setting [5]) was less than 1 nM throughout.
Turning to `COC(=O)N[C@H](C(=O)N1C[C@@H](O)C[C@H]1c1nc(-c2ccc(C#Cc3ccc4[nH]c([C@@H]5C[C@@]6(CCCO6)CN5C(=O)[C@@H](NC(=O)OC)C(C)C)nc4c3)cc2)c[nH]1)C(C)C` [Example 561], the results for the EC50 in assay [1] (setting [3]) and in assay [2] (setting [4]) were less than 1 nM and 0.024 nM, respectively.
For `COC(=O)N[C@H](C(=O)N1CCC[C@H]1c1nc(-c2ccc(C#Cc3ccc4[nH]c([C@@H]5C[C@]6(CCOC6)CN5C(=O)[C@@H](NC(=O)OC)C(C)C)nc4c3)cc2)c[nH]1)C(C)C` [Example 564], in that order: less than 1 nM and 0.008 nM.
For `COC(=O)N[C@H](C(=O)N1CC2(CC2)C[C@H]1c1ncc(-c2ccc(C#Cc3ccc4nc([C@@H]5C[C@]6(CCOC6)CN5C(=O)[C@@H](NC(=O)OC)C(C)C)[nH]c4c3)cc2)[nH]1)C(C)C` [Example 565], in that order: less than 1 nM and 0.011 nM.
In the same order, the values of `COC(=O)N[C@H](C(=O)N1C[C@](C)(F)C[C@H]1c1nc(-c2ccc(C#Cc3ccc4[nH]c([C@@H]5C[C@@]6(CCCO6)CN5C(=O)[C@@H](NC(=O)OC)C(C)C)nc4c3)cc2)c[nH]1)C(C)C` [Example 567] are less than 1 nM and 0.015 nM.
`COC(=O)N[C@H](C(=O)N1CCC[C@H]1c1nc(-c2ccc(C#Cc3ccc4[nH]c([C@@H]5CC6(CCOCC6)CN5C(=O)[C@@H](NC(=O)OC)C(C)C)nc4c3)cc2)c[nH]1)C(C)C` [Example 568]: the EC50 in assay [1] (setting [3]) was less than 1 nM; in assay [2] (setting [4]), 0.009 nM.
As to `COC(=O)N[C@H](C(=O)N1CCC[C@H]1c1ncc(-c2ccc(C#Cc3ccc4nc([C@@H]5C[C@@]6(CCCOC6)CN5C(=O)[C@@H](NC(=O)OC)C(C)C)[nH]c4c3)cc2)[nH]1)C(C)C` [Example 569], the 50% effective concentration (EC50) is less than 1 nM in assay [1] (setting [3]) and 0.009 nM in assay [2] (setting [4]).
`COC(=O)N[C@H](C(=O)N1CCC[C@H]1c1nc(-c2ccc3nc(-c4ccc5[nH]c([C@@H]6CC7(CC7)CN6C(=O)[C@@H](NC(=O)OC)C(C)C)nc5c4)ccc3c2)c[nH]1)C(C)C` [Example 574]: the EC50 in assay [1] (setting [6]) was determined as 0.127 nM; in assay [2] (setting [4]), 0.036 nM.
Consider `[2H]c1c([2H])c(-c2c[nH]c([C@@H]3CC4(CC4)CN3C(=O)[C@@H](NC(=O)OC)C(C)C)n2)c([2H])c([2H])c1C#Cc1ccc2[nH]c([C@@H]3CC4(CC4)CN3C(=O)[C@@H](NC(=O)OC)C(C)C)nc2c1` [Example 575], for which the EC50 in assay [1] (setting [3]) and in assay [2] (setting [5]) was less than 1 nM throughout.
On to `COC(=O)N[C@H](C(=O)N1CC2(CC2)C[C@H]1c1nc2cc(C#Cc3ccc(-c4c[nH]c([C@@H]5CCCN5C(=O)[C@H](NC(=O)OC)c5ccccc5)n4)cc3)ccc2[nH]1)C(C)C` [Example 579], for which the EC50 in assay [1] (setting [3]) and in assay [2] (setting [5]) was less than 1 nM in each case.
Regarding `COC(=O)N[C@H](C(=O)N1CC2(CC2)C[C@H]1c1ncc(-c2ccc(C#Cc3ccc4nc([C@@H]5CC6(CC6)CN5C(=O)[C@H](NC(=O)OC)c5ccc(F)cc5)[nH]c4c3)cc2)[nH]1)C(C)C` [Example 580], the concentration giving a half-maximal response (EC50) in assay [1] (setting [3]) is less than 1 nM; in assay [2] (setting [4]), 0.007 nM.
As to `COC(=O)N[C@H](C(=O)N1CC2(CC2)C[C@H]1c1ncc(-c2ccc(C#Cc3ccc4nc([C@@H]5CC6(CC6)CN5C(=O)[C@@H](NC(=O)OC)C5CCOCC5)[nH]c4c3)cc2)[nH]1)C1CCOCC1` [Example 583], the EC50 in assay [1] (setting [3]) and in assay [2] (setting [5]) was less than 1 nM each time.
With `COC(=O)N[C@H](C(=O)N1CC2(CC2)C[C@H]1c1ncc(-c2ccc(C#Cc3ccc4nc([C@@H]5C[C@@H](C6CC6)CN5C(=O)[C@@H](NC(=O)OC)C(C)C)[nH]c4c3)cc2)[nH]1)C(C)C` [Example 612], the EC50 in assay [1] (setting [3]) and in assay [2] (setting [5]) was less than 1 nM throughout.
`COC(=O)N[C@H](C(=O)N1C[C@]2(C[C@H]1c1ncc(-c3ccc(C#Cc4ccc5nc([C@@H]6CC7(CC7)CN6C(=O)[C@@H](NC(=O)OC)C(C)C)[nH]c5c4)cc3)[nH]1)CC2(F)F)C(C)C` [Example 614]: the EC50 in assay [1] (setting [3]) was less than 1 nM; in assay [2] (setting [4]), 0.004 nM.
In the same order, the values of `COC(=O)N[C@@H](CF)C(=O)N1CC2(CC2)C[C@H]1c1nc(-c2ccc(C#Cc3ccc4[nH]c([C@@H]5CC6(CC6)CN5C(=O)[C@@H](NC(=O)OC)C(C)C)nc4c3)cc2)c[nH]1` [Example 615] are less than 1 nM and 0.005 nM.
In the same order, the values of `COC(=O)N[C@@H](CCCNC(N)=O)C(=O)N1CC2(CC2)C[C@H]1c1nc(-c2ccc(C#Cc3ccc4[nH]c([C@@H]5CC6(CC6)CN5C(=O)[C@@H](NC(=O)OC)C(C)C)nc4c3)cc2)c[nH]1` [Example 616] are less than 1 nM and 0.495 nM.
In the case of `CC[C@H](C)[C@H](NC(=O)OC)C(=O)N1CCC[C@H]1c1ncc(-c2ccc(C#Cc3ccc4nc([C@@H]5CC6(CC6)CN5C(=O)[C@@H](NC(=O)OC)C(C)C)[nH]c4c3)cc2)[nH]1` [Example 673], the half-maximal effective concentration (EC50) in assay [1] (setting [3]) was less than 1 nM.
The same measure, in the same setting: the result for `CC[C@H](C)[C@H](NC(=O)OC)C(=O)N1CC2(CC2)C[C@H]1c1ncc(-c2ccc(C#Cc3ccc4nc([C@@H]5CC6(CC6)CN5C(=O)[C@@H](NC(=O)OC)C(C)C)[nH]c4c3)cc2)[nH]1` [Example 674] reads less than 1 nM; that for `COC(=O)N[C@H](C(=O)N1CC2(CC2)C[C@H]1c1ncc(-c2ccc(C#Cc3ccc4nc([C@@H]5CC6(CC6)CN5C(=O)[C@@H](NC(=O)OC)C5CCCCC5)[nH]c4c3)cc2)[nH]1)C(C)C` [Example 675], less than 1 nM.
With `COC(=O)N[C@@H](C(=O)N1CC2(CC2)C[C@H]1c1ncc(-c2ccc(C#Cc3ccc4nc([C@@H]5CC6(CC6)CN5C(=O)[C@H](NC(=O)OC)c5cccc(F)c5)[nH]c4c3)cc2)[nH]1)c1cccc(F)c1` [Example 677], the concentration for a half-maximal effect (EC50) in assay [1] (setting [3]) is 1 to 10 nM.
The same measure, in the same setting: the result for `COC(=O)N[C@H](C(=O)N1CC2(CC2)C[C@H]1c1ncc(-c2ccc(C#Cc3ccc4nc([C@@H]5CC6(CC6)CN5C(=O)[C@@H](NC(=O)OC)C5CCCC5)[nH]c4c3)cc2)[nH]1)C(C)C` [Example 679] reads less than 1 nM.
On to `COC(=O)N[C@@H](C(=O)N1CC2(CC2)C[C@H]1c1ncc(-c2ccc(C#Cc3ccc4nc([C@@H]5CC6(CC6)CN5C(=O)[C@H](NC(=O)OC)c5cccs5)[nH]c4c3)cc2)[nH]1)c1cccs1` [Example 680], for which the EC50 in assay [1] (setting [3]) was greater than 10 nM.
As for `COC(=O)N[C@H](C(=O)N1CC2(CC2)C[C@H]1c1nc2ccc(C#Cc3ccc(-c4cnc([C@@H]5CCCN5C(=O)[C@H](NC(=O)OC)c5ccoc5)[nH]4)cc3)cc2[nH]1)C(C)C` [Example 681], the EC50 in assay [1] (setting [6]) is 0.202 nM.
For the compound `COC(=O)N[C@H](C(=O)N1CC2(CC2)C[C@H]1c1nc2ccc(C#Cc3ccc(-c4cnc([C@@H]5CCCN5C(=O)[C@H](NC(=O)OC)c5ccco5)[nH]4)cc3)cc2[nH]1)C(C)C` [Example 682], the EC50 in assay [1] (setting [3]) is less than 1 nM.
For the compound `COC(=O)N[C@H](C(=O)N1CC2(CC2)C[C@H]1c1nc2ccc(C#Cc3ccc(-c4cnc([C@@H]5C[C@H]6C[C@H]6N5C(=O)[C@H](NC(=O)OC)c5cc(F)cc(F)c5)[nH]4)cc3)cc2[nH]1)C(C)C` [Example 683], in assay [1] (setting [3]), the EC50 is less than 1 nM.
On to `COC(=O)N[C@H](C(=O)N1CC2(CC2)C[C@H]1c1nc2ccc(C#Cc3ccc(-c4cnc([C@@H]5C[C@H]6C[C@H]6N5C(=O)[C@H](NC(=O)OC)c5cccc(F)c5)[nH]4)cc3)cc2[nH]1)C(C)C` [Example 684], for which the EC50 in assay [1] (setting [3]) is less than 1 nM.
In the case of `COC(=O)N[C@H](C(=O)N1C[C@@H]2C[C@@H]2[C@H]1c1nc2cc(C#Cc3ccc(-c4c[nH]c([C@@H]5CCCN5C(=O)[C@@H](NC(=O)OC)C(C)C)n4)cc3)ccc2[nH]1)C(C)C` [Example 690], in assay [1] (setting [3]), the EC50 is 1 to 10 nM.
